Test results published in ChEMBL document CHEMBL1148132, “Abietane diterpenoids from Coleus xanthanthus” (J Nat Prod, 2002).
In brackets after ≈: the same amount, converted by molar mass.

What follows are compounds tested on K562 (assay: Cytotoxicity against human K562 cells after 48 hrs by MTT assay). Details: K562, 48 h.
Type: functional, cell-based
In the case of CC(C)C1=C(O)C(=O)C([C@@]2(C)CCCC(C)(C)C2=O)=C(C(=O)O)C1=O [XANTHANTHUSIN E], the IC50 is reported as 34.3 µg/mL (≈ 98.5 µM).
Work on CC(C)C1=C(O)C(=O)C2=C(C(=O)C(O)=C3C(C)(C)CCC[C@]23C)C1=O yielded an IC50 of 3 µg/mL (≈ 8.71 µM).
CC(C)C1=C(O)C(=O)[C@@]23O[C@@]2(C(=O)C(O)=C2C(C)(C)CCC[C@@]23C)C1=O was tested, and the IC50 was 13.9 µg/mL (≈ 38.6 µM).
Compound O=C1c2c(O)ccc(O)c2C(=O)c2c(NCCNCCO)ccc(NCCNCCO)c21 [MITOXANTRONE] has an IC50 of 2 µg/mL (≈ 4.5 µM).
With CC(=O)Oc1c(O)c(C(C)C)c(O)c2c1[C@@]1(C)CCCC(C)(C)C1=C(O)C2=O the IC50 was 2.2 µg/mL (≈ 5.66 µM).
Compound CC(=O)OCC(C)C1=C(OC(C)=O)C(=O)C2=C(C(=O)C(O)=C3C(C)(C)CCC[C@]23C)C1=O (stereo partly specified) [XANTHANTHUSIN H] has an IC50 of 12.9 µg/mL (≈ 29 µM).
